Laboratory results from paper PMC3690672 (European journal of nuclear medicine and molecular imaging, 2009).
Several values for one entry are separate records, joined by “and”; a condition that tells them apart may be missing. Equal values may be shown once. Read-outs that look alike come from different tables or passages of the source.

Legend:
[1] = test system: multidrug resistance-associated proteins (MRPs), such as MRP1; conditions: cited from earlier work
[2] = Tariquidar or elacridar concentrations in plasma and brain by LC/MS; type: in vivo; conditions: rat; for concentration at 210 min / concentration at 180 min: intravenous
[3] = test system: P-gp at the blood-brain barrier; conditions: 15 mg/kg, rats; cited from earlier work
[4] = molecular target: T1, P-glycoprotein (P-gp) at the blood-brain barrier (Rattus norvegicus, UniProt Q6PSM0); conditions: for Mean DV increase (of baseline DV): 3 mg/kg tariquidar; for DV (Logan) of VPM / DV of VPM (2T4K model) / K1 of VPM (2T4K model) / k2 of VPM (2T4K model) / k3 of VPM (2T4K model) / k4 of VPM (2T4K model): after 3 mg/kg tariquidar (scan 2, 120 min after), mean±SD, n=6
T1 sequence (Q6PSM0 1-1272): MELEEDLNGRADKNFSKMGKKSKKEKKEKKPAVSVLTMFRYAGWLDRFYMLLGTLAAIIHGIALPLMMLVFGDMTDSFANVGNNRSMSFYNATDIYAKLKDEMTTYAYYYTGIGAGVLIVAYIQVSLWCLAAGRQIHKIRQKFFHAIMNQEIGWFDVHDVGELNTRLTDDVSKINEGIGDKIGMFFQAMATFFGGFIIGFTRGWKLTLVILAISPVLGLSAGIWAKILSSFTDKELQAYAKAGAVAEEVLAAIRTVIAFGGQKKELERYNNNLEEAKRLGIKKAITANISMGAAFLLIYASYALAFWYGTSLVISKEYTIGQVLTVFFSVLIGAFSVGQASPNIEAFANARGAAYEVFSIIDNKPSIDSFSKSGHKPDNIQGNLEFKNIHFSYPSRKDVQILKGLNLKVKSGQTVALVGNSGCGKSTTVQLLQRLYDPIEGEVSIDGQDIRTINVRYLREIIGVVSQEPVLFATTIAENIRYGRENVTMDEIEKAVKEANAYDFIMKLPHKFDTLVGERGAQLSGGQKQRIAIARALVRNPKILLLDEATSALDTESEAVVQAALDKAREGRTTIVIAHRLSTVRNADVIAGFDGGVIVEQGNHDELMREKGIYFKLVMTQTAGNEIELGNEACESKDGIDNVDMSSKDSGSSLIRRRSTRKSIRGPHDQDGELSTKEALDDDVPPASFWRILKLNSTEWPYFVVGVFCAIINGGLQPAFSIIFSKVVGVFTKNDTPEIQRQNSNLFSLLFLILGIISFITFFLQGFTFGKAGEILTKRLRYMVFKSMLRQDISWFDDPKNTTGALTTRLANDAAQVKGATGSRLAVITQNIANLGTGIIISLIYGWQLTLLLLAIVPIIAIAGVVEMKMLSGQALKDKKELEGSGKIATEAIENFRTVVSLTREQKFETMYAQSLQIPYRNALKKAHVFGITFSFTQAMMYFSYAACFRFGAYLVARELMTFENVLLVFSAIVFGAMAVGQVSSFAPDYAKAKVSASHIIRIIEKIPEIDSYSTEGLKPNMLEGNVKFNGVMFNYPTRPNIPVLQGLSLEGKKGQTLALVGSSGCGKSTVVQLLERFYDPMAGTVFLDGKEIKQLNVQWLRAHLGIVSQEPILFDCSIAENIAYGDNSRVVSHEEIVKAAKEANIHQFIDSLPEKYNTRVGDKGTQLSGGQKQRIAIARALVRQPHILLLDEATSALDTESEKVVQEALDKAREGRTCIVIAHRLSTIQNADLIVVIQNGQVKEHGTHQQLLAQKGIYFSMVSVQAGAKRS

[5] = molecular target: T1, P-glycoprotein (P-gp) at the blood-brain barrier; conditions: for DV (Logan) of VPM / DV of VPM (2T4K model) / K1 of VPM (2T4K model) / k2 of VPM (2T4K model) / k3 of VPM (2T4K model) / k4 of VPM (2T4K model): whole brain, PET 120 min after, mean±SD
[6] = test system: P-gp at the blood-brain barrier; conditions: humans, 2 mg/kg, plasma 490±203 ng/ml; cited from earlier work
[7] = test system: P-glycoprotein (P-gp) at the blood-brain barrier; type: in vivo, rat
[8] = molecular target: T1, P-glycoprotein (P-gp) at the blood-brain barrier; assay: in vivo
[9] = humans, 2 mg/kg; cited from earlier work
[10] = Hill fit of whole-brain DV vs inhibitor dose

COc1cc2c(cc1OC)CN(CCc1ccc(NC(=O)c3cc(OC)c(OC)cc3NC(=O)c3cnc4ccccc4c3)cc1)CC2 [tariquidar, Tariquidar dimesylate]
Inhibition of MRPs, such as MRP1 [1]: do not inhibit | concentration at 210 min ([2]; brain, 3 mg/kg): 457 ± 37 ng/mL | concentration at 180 min ([2]; brain, 15 mg/kg): 6450 ± 3600 ng/mL | Kp at […] ([2]; brain, iv, 3 mg/kg): 1 ± 0.3 | Kp at 3 h ([2]; brain, iv, 15 mg/kg): 1.7 ± 0.9 | concentration at 210 min ([2]; plasma, 3 mg/kg): 503 ± 139 ng/mL | concentration at 180 min ([2]; plasma, 15 mg/kg): 4000 ± 390 ng/mL | DV increase of VPM following tariquidar [3]: approximately 12 fold | Mean DV increase (of baseline DV) ([4]; cerebellum): 2.8±0.7 | DV (Logan) of VPM ([4]; cerebellum): 6.07±0.52 (0.9) ml·ml^−1 | DV of VPM (2T4K model) ([4]; cerebellum): 6.14 ml·ml^−1 and 6.14±0.54 (2.9) ml·ml^−1 | K1 of VPM (2T4K model) ([4]; cerebellum): 0.73±0.14 (11.7) ml·ml^−1·min^−1 | k2 of VPM (2T4K model) ([4]; cerebellum): 0.32±0.13 (46.6) min^−1 | k3 of VPM (2T4K model) ([4]; cerebellum): 0.30±0.08 (75.2) min^−1 | k4 of VPM (2T4K model) ([4]; cerebellum): 0.20±0.05 (26.4) min^−1 | Mean DV increase (of baseline DV) ([4]; corpus striatum): 5.9±1.1 | DV (Logan) of VPM ([4]; corpus striatum): 8.70±1.05 (0.6) ml·ml^−1 | DV of VPM (2T4K model) ([4]; corpus striatum): 8.89±1.08 (2.7) ml·ml^−1 | K1 of VPM (2T4K model) ([4]; corpus striatum): 0.79±0.13 (10.5) ml·ml^−1·min^−1 | k2 of VPM (2T4K model) ([4]; corpus striatum): 0.28±0.08 (46.6) min^−1 | k3 of VPM (2T4K model) ([4]; corpus striatum): 0.47±0.22 (53.4) min^−1 | k4 of VPM (2T4K model) ([4]; corpus striatum): 0.22±0.06 (23.1) min^−1 | Mean DV increase (of baseline DV) ([4]; entorhinal cortex): 3.0±1.4 | DV (Logan) of VPM ([4]; entorhinal cortex): 6.09±1.37 (1.1) ml·ml^−1 | DV of VPM (2T4K model) ([4]; entorhinal cortex): 6.20±1.40 (3.4) ml·ml^−1 | K1 of VPM (2T4K model) ([4]; entorhinal cortex): 0.64±0.17 (12.9) ml·ml^−1·min^−1 | k2 of VPM (2T4K model) ([4]; entorhinal cortex): 0.37±0.14 (57.5) min^−1 | k3 of VPM (2T4K model) ([4]; entorhinal cortex): 0.34±0.10 (68.9) min^−1 | k4 of VPM (2T4K model) ([4]; entorhinal cortex): 0.15±0.05 (22.5) min^−1 | Mean DV increase (of baseline DV) ([4]; frontal motor cortex): 3.1±1.1 | DV (Logan) of VPM ([4]; frontal motor cortex): 7.14±0.80 (0.9) ml·ml^−1 | DV of VPM (2T4K model) ([4]; frontal motor cortex): 7.33±0.82 (1.7) ml·ml^−1 | K1 of VPM (2T4K model) ([4]; frontal motor cortex): 0.63±0.08 (9.5) ml·ml^−1·min^−1 | k2 of VPM (2T4K model) ([4]; frontal motor cortex): 0.24±0.05 (49.6) min^−1 | k3 of VPM (2T4K model) ([4]; frontal motor cortex): 0.32±0.09 (68.7) min^−1 | k4 of VPM (2T4K model) ([4]; frontal motor cortex): 0.19±0.06 (23.8) min^−1 | Mean DV increase (of baseline DV) ([4]; hippocampus): 6.4±0.9 | DV (Logan) of VPM ([4]; hippocampus): 8.01±0.88 (0.9) ml·ml^−1 | DV of VPM (2T4K model) ([4]; hippocampus): 8.17±0.91 (2.2) ml·ml^−1 | K1 of VPM (2T4K model) ([4]; hippocampus): 0.75±0.11 (11.1) ml·ml^−1·min^−1 | k2 of VPM (2T4K model) ([4]; hippocampus): 0.32±0.08 (57.9) min^−1 | k3 of VPM (2T4K model) ([4]; hippocampus): 0.43±0.09 (69.4) min^−1 | k4 of VPM (2T4K model) ([4]; hippocampus): 0.18±0.05 (23.8) min^−1 | Mean DV increase (of baseline DV) ([4]; thalamus): 7.1±1.1 | DV (Logan) of VPM ([4]; thalamus): 9.45±1.03 (0.6) ml·ml^−1 | DV of VPM (2T4K model) ([4]; thalamus): 9.64 ml·ml^−1 and 9.64±1.06 (2.0) ml·ml^−1 | K1 of VPM (2T4K model) ([4]; thalamus): 0.93±0.12 (9.0) ml·ml^−1·min^−1 | k2 of VPM (2T4K model) ([4]; thalamus): 0.33±0.18 (48.8) min^−1 | k3 of VPM (2T4K model) ([4]; thalamus): 0.47±0.11 (64.4) min^−1 | k4 of VPM (2T4K model) ([4]; thalamus): 0.23±0.06 (23.6) min^−1 | DVmax (maximum effect) [5, 10]: 11.9±0.5 ml·ml^−1 | Hill factor n [5, 10]: 3.0±0.6 | Dose leading to complete inhibition of P-gp ([5]; according to dose-response assessment (Fig. 2)): above 6 mg/kg | Maximum increase in VPM brain distribution (DV) over baseline ([5]; at maximum effective doses, rat brain): up to 11 fold | Whole-brain DV increase (factor) as compared to baseline scans ([5]; inhibitor 3.75 mg/kg): 7.0±1.1 | Whole-brain DV increase (factor) as compared to baseline scans ([5]; inhibitor 7.5 mg/kg): 10.1±0.8 | Whole-brain DV increase (factor) as compared to baseline scans ([5]; inhibitor 15 mg/kg): 9.9±1.8 | Whole-brain DV increase (factor) as compared to baseline scans ([5]; inhibitor 30 mg/kg): 10.2±0.3 | Increase of brain DVs at the half-maximum effect plasma concentration ([5]; rat, in vivo): approximately 4 fold | DV (Logan) of VPM ([5]; inhibitor 3.75 mg/kg i.v.): 8.80±1.06 (0.9) ml·ml^−1 | DV of VPM (2T4K model) ([5]; inhibitor 3.75 mg/kg i.v.): 8.92±1.11 (2.3) ml·ml^−1 | K1 of VPM (2T4K model) ([5]; inhibitor 3.75 mg/kg i.v.): 0.81±0.16 (13.9) ml·ml^−1·min^−1 | k2 of VPM (2T4K model) ([5]; inhibitor 3.75 mg/kg i.v.): 0.18±0.05 (50.3) min^−1 | k3 of VPM (2T4K model) ([5]; inhibitor 3.75 mg/kg i.v.): 0.20±0.02 (101.3) min^−1 | k4 of VPM (2T4K model) ([5]; inhibitor 3.75 mg/kg i.v.): 0.22±0.07 (51.4) min^−1 | DV (Logan) of VPM ([5]; inhibitor 7.5 mg/kg i.v.): 12.66±0.77 (0.9) ml·ml^−1 | DV of VPM (2T4K model) ([5]; inhibitor 7.5 mg/kg i.v.): 12.93±0.79 (1.7) ml·ml^−1 | K1 of VPM (2T4K model) ([5]; inhibitor 7.5 mg/kg i.v.): 1.27±0.24 (17.4) ml·ml^−1·min^−1 | k2 of VPM (2T4K model) ([5]; inhibitor 7.5 mg/kg i.v.): 0.31±0.12 (82.5) min^−1 | k3 of VPM (2T4K model) ([5]; inhibitor 7.5 mg/kg i.v.): 0.37±0.10 (97.3) min^−1 | k4 of VPM (2T4K model) ([5]; inhibitor 7.5 mg/kg i.v.): 0.18±0.01 (23.9) min^−1 | DV (Logan) of VPM ([5]; inhibitor 15 mg/kg i.v.): 12.35±1.79 (1.4) ml·ml^−1 | DV of VPM (2T4K model) ([5]; inhibitor 15 mg/kg i.v.): 12.72±1.83 (1.8) ml·ml^−1 | K1 of VPM (2T4K model) ([5]; inhibitor 15 mg/kg i.v.): 1.02±0.02 (15.0) ml·ml^−1·min^−1 | k2 of VPM (2T4K model) ([5]; inhibitor 15 mg/kg i.v.): 0.43±0.16 (50.3) min^−1 | k3 of VPM (2T4K model) ([5]; inhibitor 15 mg/kg i.v.): 0.48±0.04 (39.2) min^−1 | k4 of VPM (2T4K model) ([5]; inhibitor 15 mg/kg i.v.): 0.12±0.02 (20.4) min^−1 | DV (Logan) of VPM ([5]; inhibitor 30 mg/kg i.v.): 12.76±0.04 (0.7) ml·ml^−1 | DV of VPM (2T4K model) ([5]; inhibitor 30 mg/kg i.v.): 13.11±0.22 (2.1) ml·ml^−1 | K1 of VPM (2T4K model) ([5]; inhibitor 30 mg/kg i.v.): 1.22±0.23 (11.2) ml·ml^−1·min^−1 | k2 of VPM (2T4K model) ([5]; inhibitor 30 mg/kg i.v.): 0.30±0.04 (54.6) min^−1 | k3 of VPM (2T4K model) ([5]; inhibitor 30 mg/kg i.v.): 0.38±0.18 (59.4) min^−1 | k4 of VPM (2T4K model) ([5]; inhibitor 30 mg/kg i.v.): 0.17±0.09 (19.8) min^−1 | Increase of brain DVs of VPM [6]: 1.24 fold | Reversibility of the effect on brain TACs ([7]; 15 mg/kg, decline of TACs after peak uptake): at least partially reversible | Time of peak VPM brain uptake (maximum effect) after inhibitor injection ([7]; tariquidar 15 mg/kg or elacridar 5 mg/kg at 60 min after radiotracer injection): 30 ± 5 min and 30 min | EC50 at 180 min [8]: 0.545 ± 0.0299 µg/mL | ED50 at 120 min ([8]; Sprague-Dawley, iv): 3 ± 0.2 mg/kg | Plasma concentration at the time of the PET scan [9]: 490 ± 203 ng/mL
